In the supplement of paper PMC13380429:

How the values were obtained:
Details in all cases: 72 h
Calu-3 [1] = assay: drug sensitivity score (DSS) for viability; higher = more toxic; extreme values may be limits of the assay
Vero E6 [2] = assay: as above
U2OS [3] = assay: as above
Caco-2 [4] = assay: as above
HepG2 [5] = assay: as above
Calu-3 [6] = assay: cell viability relative to DMSO; higher = less toxic
Vero E6 [7] = assay: as above
U2OS [8] = assay: as above
Caco-2 [9] = assay: as above
HepG2 [10] = assay: as above
Calu-3 [11] = assay: relative viability EC50 (midpoint between 100% and the lowest measured viability); higher = less toxic
Vero E6 [12] = assay: as above
U2OS [13] = assay: as above
Caco-2 [14] = assay: as above
HepG2 [15] = assay: as above

Row | Structure (SMILES) | drug sensitivity score (Calu-3 [1]) | drug sensitivity score (Vero E6 [2]) | drug sensitivity score (U2OS [3]) | drug sensitivity score (Caco-2 [4]) | drug sensitivity score (HepG2 [5]) | cell viability (Calu-3 [6]; 1 nM) | cell viability (Calu-3 [6]; 10 nM) | cell viability (Calu-3 [6]; 100 nM) | cell viability (Calu-3 [6]; 1000 nM) | cell viability (Calu-3 [6]; 10000 nM) | cell viability (Vero E6 [7]; 1 nM) | cell viability (Vero E6 [7]; 10 nM) | cell viability (Vero E6 [7]; 100 nM) | cell viability (Vero E6 [7]; 1000 nM) | cell viability (Vero E6 [7]; 10000 nM) | cell viability (U2OS [8]; 1 nM) | cell viability (U2OS [8]; 10 nM) | cell viability (U2OS [8]; 100 nM) | cell viability (U2OS [8]; 1000 nM) | cell viability (U2OS [8]; 10000 nM) | cell viability (Caco-2 [9]; 1 nM) | cell viability (Caco-2 [9]; 10 nM) | cell viability (Caco-2 [9]; 100 nM) | cell viability (Caco-2 [9]; 1000 nM) | cell viability (Caco-2 [9]; 10000 nM) | cell viability (HepG2 [10]; 1 nM) | cell viability (HepG2 [10]; 10 nM) | cell viability (HepG2 [10]; 100 nM) | cell viability (HepG2 [10]; 1000 nM) | cell viability (HepG2 [10]; 10000 nM) | relative viability EC50 (Calu-3 [11]) | relative viability EC50 (Vero E6 [12]) | relative viability EC50 (U2OS [13]) | relative viability EC50 (Caco-2 [14]) | relative viability EC50 (HepG2 [15])
1 | C(=C\c1ccccc1)/CN1CCN(CCOC(c2ccccc2)c2ccccc2)CC1 | 0 | 0 | 0 | 0.6 | 0 | 113% | 99.3% | 98.5% | 92% | 98.8% | 98% | 97% | 95.8% | 91.7% | 91.6% | 99.1% | 95.5% | 95.8% | 103% | 100% | 102% | 87.5% | 101% | 99.1% | 80.5% | 92.7% | 97.3% | 91.3% | 90.4% | 95.4% | > 10000 nM | > 10000 nM | > 10000 nM | > 10000 nM | > 10000 nM
2 | CC(C)c1cc(C(=O)N2Cc3ccc(CN4CCN(C)CC4)cc3C2)c(O)cc1O | 13.3 | 11 | 18.8 | 13.1 | 26 | 101% | 96.4% | 77.8% | 41.7% | 38.9% | 104% | 104% | 101% | 40.4% | 30.7% | 101% | 102% | 85.3% | 8.1% | 3.4% | 98.5% | 94.8% | 85.8% | 40% | 39.1% | 108% | 103% | 28.4% | 1.5% | 1.2% | 145 nM | 492 nM | 232 nM | 174 nM | 68 nM
3 | CN(C)CCOc1ccc(-c2nc(-c3ccncc3)c(-c3ccc4c(c3)CC/C4=N\O)[nH]2)cc1 | 0 | 0 | 0 | 0 | 12.6 | 99.6% | 94.5% | 114% | 115% | 117% | 102% | 98.5% | 105% | 112% | 113% | 93% | 108% | 99.6% | 116% | 114% | 106% | 103% | 99.1% | 101% | 98.6% | 110% | 102% | 96.8% | 39.8% | 3.5% | > 10000 nM | > 10000 nM | > 10000 nM | > 10000 nM | 748 nM
4 | CN1CCN(c2ccc(OC(F)(F)F)c(Nc3ncc4c(n3)-c3c(c(C(N)=O)nn3CCO)CC4)c2)CC1 | 5.1 | 8.8 | 10 | 11 | 18.8 | 100% | 105% | 78.7% | 84.9% | 84.7% | 102% | 112% | 99.7% | 52.4% | 48.3% | 108% | 103% | 98.2% | 46.5% | 41.3% | 104% | 94.9% | 77.3% | 52% | 62.3% | 105% | 95% | 70.4% | 16.7% | 15.8% | > 10000 nM | 394 nM | 394 nM |  | 139 nM
5 | CNC(=O)c1nn(C)c2c1C(C)(C)Cc1cnc(Nc3ccc(N4CCN(C)CC4)cc3)nc1-2 | 7.9 | 14.8 | 11.6 | 10.2 | 14.5 | 95.1% | 100% | 89% | 67.9% | 22.1% | 91.9% | 96.1% | 85% | 31.2% | 6.4% | 99.7% | 93.6% | 97.3% | 47.4% | 3.6% | 98.1% | 92.2% | 90.3% | 53% | 28.9% | 89.9% | 102% | 75.7% | 37.7% | 16.5% | 1200 nM | 409 nM | 898 nM | 518 nM | 288 nM
6 | CON(C)C(=O)[C@H](O)[C@H](Cc1ccccc1)NC(=O)c1cc2cc(Cl)ccc2[nH]1 | 0 | 0 | 0 | 0 | 0 | 88.7% | 109% | 92.7% | 106% | 118% | 106% | 101% | 103% | 94.2% | 101% | 99.3% | 102% | 98.6% | 101% | 95.9% | 91.9% | 105% | 92.9% | 100% | 90.4% | 105% | 95.3% | 103% | 90.5% | 90.1% | > 10000 nM | > 10000 nM | > 10000 nM | > 10000 nM | > 10000 nM
7 | COc1cc2c(cc1C(F)(F)F)N(C(=O)Nc1cc(F)cc(-c3cccnc3)c1)CC2 | 0 | 0 | 0 | 0 | 0 | 102% | 91.7% | 92.9% | 101% | 93.9% | 96.9% | 96.1% | 99.4% | 99.9% | 95.1% | 100% | 105% | 97.4% | 103% | 95.9% | 96.8% | 104% | 89.8% | 99% | 98.6% | 99.5% | 90.9% | 103% | 96.4% | 113% | > 10000 nM | > 10000 nM | > 10000 nM | > 10000 nM | > 10000 nM
